US20150368642A1, “LNA OLIGONUCLEOTIDE CARBOHYDRATE CONJUGATES” (HOFFMANN-LA ROCHE INC., priority 2013, published 2015)
l = locked nucleic acid (LNA); d = 2'-deoxy (DNA)

Legend:
ApoB mRNA = experiment: Knock down of ApoB mRNA in liver and kidney (qPCR, Example 5); type: in vivo, C57BL6/J mice; conditions: mice; for knock down of ApoB mRNA: single iv or sc dose equimolar to 0.25 mg/kg, days 1-7, FIG. 8
From the text: (§1) Capital letters are LNA nucleosides (such as beta-D-oxy LNA), lower case letters are a DNA nucleoside. Subscript s represents a phosphorothioate internucleoside linkage (region A). LNA cytosines are optionally 5-methyl cytosine. The 2PO linker (region B) is 5′ to the sequence region A, and comprises of two DNA nucleosides linked by phosphodiester linkage, with the internucleoside linkage between the 3′ DNA nucleoside of region A and the 5′ LNA nucleoside of region A also being phosphodiester. A linkage group (Y) may be used to link the conjugate group, when present, to region B, or A (SEQ ID NO 13 and 11). C57BL6/J mice were injected either iv or sc with a single dose saline or 0.25 mg/kg unconjugated LNA-antisense oligonucleotide (SEQ ID N012) or equimolar amounts of LNA antisense oligonucleotides conjugated to GalNAc1, GalNAc2, or cholesterol (2PO) and sacrificed at days 1-7 according to the table below (experimental design).
(§2) RNA was isolated from liver and kidney and subjected to qPCR with ApoB specific primers and probe to analyse for ApoB mRNA knockdown. The oligonucleotide content was measured using ELISA method and total cholesterol in serum was measured.
C57BL/6JBom female animals, app. 20 g at arrival, were dosed with 10 ml per kg BW (according to day 0 bodyweight) i.v. or s.c. of the compound formulated in saline or saline alone according to the table above.
The animals were anaesthetised with 70% CO2-30% O2 and sacrificed by cervical dislocation according to the above table. One half of the large liver lobe and one kidney were minced and submerged in RNAlater. The other half of liver and the other kidney was frozen and used for tissue analysis. […]
(§3) For each sample 0.5 μg total RNA was adjusted to (10.8 μl) with RNase free H2O and mixed with 2 μl random decamers (50 μM) and 4 μl dNTP mix (2.5 mM each dNTP) and heated to 70° C. for 3 min after which the samples were rapidly cooled on ice. […] Oligonucleotide content in liver and kidney was measured by sandwich ELISA method.

ApoB [1] = experiment: Total cholesterol in serum (Example 5); type: in vivo, C57BL6/J mice; conditions: mice, iv and sc administration, versus SEQ ID NO 12 and 14, FIG. 9
From the text: as §1, with “C57BL6/J mice were injected either iv or sc with a single dose saline or 0.25 mg/kg unconjugated LNA-antisense oligonucleotide (SEQ ID N012) or equimolar amounts of LNA antisense oligonucleotides conjugated to GalNAc1, GalNAc2, or cholesterol (2PO) and sacrificed at days 1-7 according to the table below (experimental design).” left out
as §2
Immediately before sacrifice retro-orbital sinus blood was collected using S-monovette Serum-Gel vials (Sarstedt, Nümbrecht, Germany) for serum preparation. Serum was analyzed for total cholesterol using ABX Pentra Cholesterol CP (Triolab, Brondby, Denmark) according to the manufacturer's instructions.

[2] = Oligonucleotide content in liver and kidney by sandwich ELISA (Example 5); type: in vivo, C57BL6/J mice; conditions: mice
From the text: as §1, with “C57BL6/J mice were injected either iv or sc with a single dose saline or 0.25 mg/kg unconjugated LNA-antisense oligonucleotide (SEQ ID N012) or equimolar amounts of LNA antisense oligonucleotides conjugated to GalNAc1, GalNAc2, or cholesterol (2PO) and sacrificed at days 1-7 according to the table below (experimental design).” left out
RNA was isolated from liver and kidney and subjected to qPCR with ApoB specific primers and probe to analyse for ApoB mRNA knockdown. The oligonucleotide content was measured using ELISA method and total cholesterol in serum was measured. […]
as §3

ApoB [3] = experiment: Non-human primate study, serum ApoB and LDL-C (ApoB conjugates); type: in vivo, cynomolgus monkeys; conditions: Example 7; single i.v. dose; FIG. 16
Experimental: (§4) The primary objective for this study is to investigate selected lipid markers over 7 weeks after a single slow bolus injection of anti-PCSK9 and anti-ApoB LNA conjugated to GalNac cluster (Conj2a) to cynomolgus monkeys and assess the potential toxicity of compounds in monkey. The compounds which were prepared in sterile saline (0.9%) at an initial concentration of 0.625 and 2.5 mg/ml).
(§5) Male (PCSK9) or female monkeys (ApoB) monkeys of at least 24 months old are used, and given free access to tap water and 180 g of MWM(E) SQC SHORT expanded diet (Dietex France, SDS, Saint Gratien, France) will be distributed daily per animal. The total quantity of food distributed in each cage will be calculated according to the number of animals in the cage on that day. In addition, fruit or vegetables will be given daily to each animal. The animals will be acclimated to the study conditions for a period of at least 14 days before the beginning of the treatment period. During this period, pre-treatment investigations will be performed. The animals are dosed i.v. at a dose if, for example, 0.25 mg/kg or 1 mg/kg. The dose volume will be 0.4 mL/kg. 2 animals are used per group. After three weeks, the data will be analyzed and a second group of animals using a higher or lower dosing regimen may be initiated—preliminary dose setting is 0.5 mg/kg and 1 mg/kg, or lower than that based on the first data set.
The dose formulations will be administered once on Day 1. Animals will be observed for a period of 7 weeks following treatment, and will be released from the study on Day 51. Day 1 corresponds to the first day of the treatment period. Clinical observations and body weight and food intake (per group) will be recorded prior to and during the study.
The following parameters will be determined for all surviving animals at the occasions indicated below: • full biochemistry panel (complete list below)—on Days −8, 15 and 50, • liver Safety (ASAT, ALP, ALAT, TBIL and GGT only)—on Days 4, 8, 22 and 36, • lipid profile (Total cholesterol, HDL-C, LDL-C and Triglycerides) and Apo-B only—on Days −1, 4, 8, 22, 29, 36, and 43.
Blood (approximately 1.0 mL) is taken into lithium heparin tubes (using the ADVIA 1650 blood biochemistry analyzer): Apo-B, sodium, potassium, chloride, calcium, inorganic phosphorus, glucose, HDL-C, LDL-C, urea, creatinine, total bilirubin (TBIL), total cholesterol, triglycerides, alkaline phosphatase (ALP), alanine aminotransferase (ALAT), aspartate aminotransferase (ASAT), creatine kinase, gamma-glutamyl transferase (GGT), lactate dehydrogenase, total protein, albumin, albumin/globulin ratio.
Other Analysis: WO2011009697 & WO2010142805 provides the methods for the following analysis: qPCR, PCSK9/ApoB mRNA analysis, Other analysis includes PCSK9/ApoB protein ELISA, serum Lp(a) analysis with ELISA (Mercodia No. 10-1106-01), tissue and plasma oligonucleotide analysis (drug content), Extraction of samples, standard- and QC-samples, Oligonucleotide content determination by ELISA. […] There was no indication of hepatotoxicity or nephrotoxicity with the ApoB targeting compounds.

PCSK9 = experiment: Non-human primate study, serum PCSK9 protein ELISA; type: in vivo; conditions: cynomolgus monkeys, single dose, entire length of the study
Experimental: as §4
as §5, with “During this period, pre-treatment investigations will be performed. The animals are dosed i.v. at a dose if, for example, 0.25 mg/kg or 1 mg/kg. The dose volume will be 0.4 mL/kg. 2 animals are used per group.” left out
The dose formulations will be administered once on Day 1. […] Clinical observations and body weight and food intake (per group) will be recorded prior to and during the study. […]

miR-122 = experiment: LNA antimiR GalNAc conjugates, miR122 knock down in mice; type: in vivo, mouse; conditions: for Aldo A and Bckdk mRNA: already in the low dose group (3×0.5 mg/kg), liver; for miR122 knock down in the liver: i.v. days 0, 2 and 4, day 7, compared to parent LNA; for total cholesterol levels: i.v. days 0, 2 and 4, serum pre-dose, day 4 and day 7
Experimental: (§6) An in vivo mouse study was performed using a total of 9 groups of mice (n=5). Each mouse was dosed i.v. on days 0, 2 and 4 with either 0.5 mg/kg or 2 mg/kg or equimolar doses of the GalNAc conjugated LNA's compared to parent LNA compound. A saline control group was included (see study set up in Tab. 1). Serum samples were taken 4 days pre administration, interim at day 4 and at endpoint day 7. Liver and kidney samples were stored in RNA later. Validation of miR122 knock down of miR122 was done as described in Obad Nat Genet. 2011 Mar. 20; 43(4):371-8 (FIG. 17). The cholesterol level in serum were analyzed as described in Elmen J, et al. LNA-mediated microRNA silencing in non-human primates. Nature. 2008; 452:896-899. (FIG. 18) and mRNA levels of two miR122 down regulated genes (Aldo A and Bckdk) were analyzed using standard QPCR assay techniques (FIG. 19). ALT was measured to assess tolerability of the compounds (FIG. 20).

[4] = ALT in final serum (antimiR-122 study); type: in vivo, mouse; conditions: mice, final serum day 7
Experimental: Serum analysis for ALT, AST and cholesterol was performed on the “Cobas INTEGRA 400 plus” clinical chemistry platform (Roche Diagnostics), using 10 μl of serum.
as §6

Substance | knock down of ApoB mRNA (ApoB mRNA) | total cholesterol in serum (ApoB [1]) | Aldo A and Bckdk mRNA (miR-122) | miR122 knock down in the liver (miR-122) | total cholesterol levels (miR-122) | ALT [4] | other results
SEQ ID NO 11: GsCsaststsgsgstsastsTsCsA, GalNAc cluster Conj2a; ApoB (GCATTGGTATTCA; listed as DNA, chemistry not fully specified) | knock down of ApoB mRNA better than the unconjugated ApoB LNA | better effect that the unconjugated and the cholesterol conjugated compounds | – | – | – | – | specific activity (activity relative to liver uptake) ([2]; iv dosing): higher specific activity than GalNAc 1 conjugate; pharmacology (serum ApoB and LDL-C) (ApoB [3]): did not exhibit significant pharmacology
SEQ ID NO 28: AsAsTsgscstsascsasasasasCsCsCsA, GalNAc cluster Conj2a; PCSK9 (AATGCTACAAAACCCA; listed as DNA, chemistry not fully specified) | – | – | – | – | – | – | down regulation of PCSK9 (and LDL-C), onset and duration (PCSK9): rapid and consistent down regulation of PCSK9 and LDL-C throughout the duration of the study
SEQ ID NO 13: GsCsaststsgsgstsastsTsCsA, GalNAc cluster Conj1a; ApoB (GCATTGGTATTCA; sugars from the 5' end l2 d8 l3, all phosphorothioate, methylation of C not given here; GalNAc cluster Conj1a conjugated) | knock down of ApoB mRNA better than the unconjugated ApoB LNA | better effect that the unconjugated and the cholesterol conjugated compounds | – | – | – | – | knock down of ApoB mRNA, iv versus sc dosing (ApoB mRNA; single dose 0.36 mg/kg): iv dosing is better than sc dosing; tissue content of the oligonucleotides, uptake in liver ([2]; iv and sc, FIG. 10): very much uptake in liver
SEQ ID NO 54: 5′-Conj1a^mCsAs^mCsAs^mCsTs^mCs^mCca^mCsAs^mCsAs^mCsTs^mCs^mC-3′ (CACACTCCCACACACTCC; LNA, 5-methyl C, ca linker, 5' GalNAc Conj1a, chemistry not fully specified) | – | – | up regulation of Aldo A and Bckdk mRNA | remarkable improvement of miR122 knock down in the liver | decreased total cholesterol levels | tendency to improve | –
SEQ ID NO 52: 5′-Conj1a^mCsAs^mCsAs^mCsTs^mCs^mC-3′ (CACACTCC; LNA, 5-methyl C, 5' GalNAc Conj1a, chemistry not fully specified) | – | – | up regulation of Aldo A and Bckdk mRNA | remarkable improvement of miR122 knock down in the liver | decreased total cholesterol levels | increase in ALT | –
